Laboratory results from patent US20230172897A1, “METHODS OF TREATING BREAST CANCERS WITH SELECTIVE ANDROGEN RECEPTOR MODULATORS AND ADDITIONAL THERAPEUTIC AGENTS” (VERU, INC., priority 2021, published 2023).
Values joined by “and” are separate entries in the source; they are usually repeats but may differ in a detail not shown here. Equal entries are not always repeated.

Tested on: ER-positive metastatic breast cancer
Assay: Phase 2 clinical trial (G200801), 9 mg daily
Format: in vivo, women
Description: The goal of this study was to determine the importance of the AR status as a therapeutic target in women with ER-positive metastatic breast cancer (MBC) that had previously responded to hormone therapy. The treatment was continued until disease progression (PD).
CBR will be correlated with AR status of metastatic tumor biopsy.
Serum prostate specific antigen (PSA) was evaluated as a biomarker of AR activity.
Female subjects with ER-positive metastatic breast cancer who have previously been treated with up to 3 prior hormonal therapies for the treatment of breast cancer. Subjects must have been treated with and responded to previous adjuvant therapy for ≥3 years or hormonal therapy for metastatic disease for >6 months prior to progression. Details of subject selection criteria are presented below:
Measurable and non-measurable lesions (primary and/or metastatic) were identified and assessed by a modified Response Evaluation Criteria In Solid Tumors (RECIST 1.1) classification over the course of this study (described in detail below).
The primary efficacy analysis was the clinical benefit in subjects with AR-positive breast cancer at 6 months as measured by a modified Response Evaluation Criteria In Solid Tumors (RECIST 1.1) classification. Key secondary endpoints of clinical benefit in all subjects and AR-negative subjects, as well as objective response rate, progression free survival, time to progression, duration of response, incidence of SREs, and time to first SRE in subsets based on AR status (i.e., all subjects, AR-positive subjects, and AR-negative subjects) was also assessed. Effects on CA 27-29, PSA, bone turnover markers, QOL, and libido were assessed as tertiary endpoints.
Clinical benefit in a subject is defined as a complete response [CR], a partial response [PR] or stable disease [SD] as measured by modified RECIST 1.1, which is described in detail below. (Eisenhauer E A et al. New response evaluation criteria in solid tumors: revised RECIST guideline (version 1.1). European Journal of Cancer 45:228-247, 2009).

[1] = 9 mg daily, individual patients

C[C@](O)(COc1ccc(C#N)cc1)C(=O)Nc1ccc(C#N)c(C(F)(F)F)c1 [Formula IX, (S)—N-(4-Cyano-3-(trifluoromethyl)phenyl)-3-(4-cyanophenoxy)-2-hydroxy-2-methylpropanamide]
CR or PR (9 mg daily): no CR or PR has been observed
adverse event: A-fib (9 mg daily): 1
adverse event: anxiety/emotional changes (9 mg daily): 5
adverse event: arthralgia (9 mg daily): 6
adverse event: bloating (9 mg daily): 2
adverse event: bruising (9 mg daily): 1
adverse event: cellulitis (9 mg daily): 1
adverse event: chills (9 mg daily): 1
adverse event: constipation (9 mg daily): 2
adverse event: cough (9 mg daily): 1
adverse event: dehydration (9 mg daily): 1
adverse event: diarrhea (9 mg daily): 3
adverse event: dizziness (9 mg daily): 2
adverse event: dysgeusia (9 mg daily): 1
adverse event: dyspepsia (9 mg daily): 1
adverse event: dyspnea (9 mg daily): 3
adverse event: edema (9 mg daily): 2
adverse event: fatigue (9 mg daily): 14
adverse event: fever (9 mg daily): 1
adverse event: flatulence (9 mg daily): 1
adverse event: glaucoma (9 mg daily): 1
adverse event: headache (9 mg daily): 4
adverse event: hot flash night sweats (9 mg daily): 7
adverse event: hypertension (9 mg daily): 2
adverse event: infection (9 mg daily): 1
adverse event: insomnia (9 mg daily): 2
adverse event: myalgia (9 mg daily): 5
adverse event: nail discoloration (9 mg daily): 1
adverse event: nausea (9 mg daily): 11
adverse event: pain (9 mg daily): 22
adverse event: paresthesia (9 mg daily): 1
adverse event: pleural effusion (9 mg daily): 1
adverse event: polyuria (9 mg daily): 1
adverse event: post menopausal bleeding (9 mg daily): 3
adverse event: stiffness (9 mg daily): 1
adverse event: tendonitis (9 mg daily): 1
adverse event: vision changes (9 mg daily): 3
adverse event: vomiting (9 mg daily): 2
adverse event: weight gain (9 mg daily): 2
adverse event: weight loss (9 mg daily): 2
duration of stable disease, one ongoing subject (9 mg daily): > 336 days
liver enzymes (ALT, AST and bilirubin) (9 mg daily): returned to baseline
median duration of SD as best response (9 mg daily): 212 days
median time to PD (9 mg daily): 80 days
patients who reached 6 m that are AR-positive with SD and increased PSA (9 mg daily): six
patients with increased PSA levels (9 mg daily): 20 of the 22
subjects with progressive disease at 6 months or prior (9 mg daily): N = 12
tolerability (9 mg daily): well-tolerated
patients with PD (current disposition) (9 mg daily, 22 patients): 15
patients with SD (current disposition) (9 mg daily, 22 patients): 4
subjects achieving CB as best response (9 mg daily, all subjects): 41%
Current Disposition [1]: D/C (2×) and Deceased (4×)
Day 84 RECIST [1]: D/C SAE and PD SAE and D/C
MAX PSA F/U [1]: 2.430 and 0.058 and 0.008 and <0.007 and 0.078 and 0.217 and 9.610 and 0.450 and 3.540 and 0.238 and 8.180 and 0.548 and 0.062 and 0.024 and 13.160 and 0.069 and 0.031 and 0.795 and 0.301 and 0.028 and 0.046 and 0.092
tolerability (9 mg daily, listed as Enobosarm): well tolerated
tumor regression in one subject with SD (9 mg daily, single target lesion): 27%
6-month Kaplan-Meier estimate for radiographic progression free survival (9 mg oral daily): 43.8%
clinical benefit rate at 6 months (9 mg oral daily): 35.3%
Progression free probability (Day 84): 57.5%
Progression free probability (Day 168): 50.5%
time to progression (TTP) (seven subjects who achieved CB at six months): 10.2 months
